Literature values as cited in US7022698B2, “Pharmaceutical compositions containing new polymorphic forms of olanzapine and uses thereof” (U & I Pharmaceuticals, Ltd., priority 1999, dated 2006).
Where two headings read alike, the source gives them in different places.

Assays:
[1] = test system: schizophrenia and schizoaffecive and schizophreniform disorders; conditions: for Montgomery-Asberg Depression Rating Scale (MADRS) total score, baseline to endpoint decline: 6-week trial, p=0.001
[2] = test system: patients with schizophrenia; conditions: 10 mg/day, in comparison with olanzapine 1 mg/day or placebo
[3] = test system: serotonin (5-HT) receptors
[4] = test system: inpatients with a diagnosis of psychotic disorders
[5] = test system: psychotic mood disorders patients and schizophrenic patients
bipolar type I patients = conditions: mean dose 13.8 mg/day
[6] = test system: patients with Alzheimer's disease (AD)
[7] = test system: inpatients with psychotic depression
[8] = test system: muscarinic cholinergic receptor
[9] = test system: dopamine receptors (D1 to D5)
[10] = test system: patients with Acute Mania; conditions: 5–20 mg/day

O=C(CCCN1CCC(O)(c2ccc(Cl)cc2)CC1)c1ccc(F)cc1 [haloperidol]
Montgomery-Asberg Depression Rating Scale (MADRS) total score, baseline to endpoint decline [1]: 3 point

Cc1cc2c(s1)Nc1ccccc1N=C2N1CCN(C)CC1 [olanzapine, 2-methyl-4-(4-methyl-1-piperazinyl)-10H-thieno-[2,3b][1,5] benzodiazepine]
Hamilton Rating Scale for Depression scores [2]: significant reduction
affinity for serotonergic receptors [3]: nanomolar affinity
inhibition of 5-HT receptors ([3]; 5-HT2A, 5-HT2B, 5-HT2C, and 5-HT6 receptors): potent inhibitor
Montgomery-Asberg Depression Rating Scale (MADRS) total score, baseline to endpoint decline [1]: 6 point
reduction of the MADRS scores ([1]; subanalysis, schizoaffective patients currently depressed, p=0.002): superior to haloperidol
decrease of Brief Psychiatric Rating Scale (BPRS) mania score ([1]; subanalysis, schizoaffective patients currently manic, p=0.25): as effective as haloperidol
affinity for α1-adrenergic receptors (α1-adrenergic receptors): nanomolar affinity
inhibition of α-adrenergic receptor (α1-adrenergic receptors): potent inhibitor
overall response rate ([4]; all patients): 62%
response rate ([4]; bipolar disorder patients): 83%
K Axis V subscale scores, baseline to follow-up ([5]; psychotic mood disorders group, psychological impairment, violence, and social skills subscales): statistically significant change
patients remaining hospitalized at follow-up ([5]; psychotic mood disorders patient group (24/32)): Seventy-five
change on the CGI and GAF-EQ ([5]; psychotic mood disorders patients (N=32) and schizophrenic patients (N=18) who continued olanzapine): statistically significant change toward improvement
K Axis V subscale scores, baseline to follow-up ([5]; schizophrenic group, only on the violence subscale): significant change in score only on the violence subscale
patients remaining hospitalized at follow-up ([5]; schizophrenic patients (18/18)): 100%
HAM-D score at baseline (bipolar type I patients; 113 patients): 12.2
YMRS score at baseline (bipolar type I patients; 113 patients): 25.5
HAM-D score on follow-up (bipolar type I patients; average 6.7 months, p<0.001): 6.5
YMRS score on follow-up (bipolar type I patients; average 6.7 months, p<0.001): 7.5
EPS (bipolar type I patients): Few EPS were noted
efficacy in reducing psychotic symptoms, parent study ([6]; 5-mg/day dose): most efficacious
safety, parent study ([6]; 5-mg/day dose): safest
efficacy in reducing psychotic symptoms, parent study ([6]; 10-mg/day dose, relative to placebo): significant efficacy
expression of psychotic symptoms, parent study ([6]; 15-mg/day dose): failed to separate from the placebo group
safety, parent study ([6]; 15-mg/day dose): less tolerated safety profile
emergence of psychotic symptoms compared to placebo ([6]; possible AD with agitation/aggression and no or minimal hallucinations and/or delusions): significantly lower emergence of psychotic symptoms
response rate [7]: 67%
affinity for muscarinic receptors [8]: nanomolar affinity
inhibition of muscarinic cholinergic receptor ([8]; all five subtypes): potent inhibitor
mesolimbic and mesocortical selectivity: mesolimbic and mesocortical selectivity
affinity for dopaminic receptors [9]: nanomolar affinity
binding selectivity among dopamine receptors ([9]; D1 to D5): relatively non-selective binding
percentage of patients who discontinued treatment because of lack of efficacy ([10]; p=0.02 vs placebo): 28.6%
patients with an improvement of 50% or more in Young Mania Rating Scale total score ([10]; responder analysis): 48.6%
